# Several values for one entry are separate records, joined by “and”; a condition that tells them apart may be missing. Equal values may be shown once.
# Assay: Plasma exposures following IV infusion alone or in combination to Sprague-Dawley rats
# Conditions: for Lenacapavir Concentrations in Rat Plasma When Dosed with Prodrug formula 4-A: Lenacapavir IV infusion 1.0 mg/kg with Prodrug formula 4-A
# Protocol: The pharmacokinetics of EFdA and prodrug formula 4-A, as well as lenacapavir were studied in rats after IV infusion administration alone or in combination at a dose of 1.0 mg/kg each.
# Formulations: The prodrugs and lenacapavir were formulated alone or in combination as solutions at 1.0 mg/mL each in 20% […], 10% Solutol aqueous solution within 0.5 hour prior to dose.
# Dose Administration and Sample Collection: The in-life phase of this study was conducted at the WuXi Apptec (WuXi) at Shanghai, China in accordance with the WuXi Institutional Animal Care and Use Committee (IACUC) standard animal procedures along with the IACUC guidelines that are in compliance with the Animal Welfare Act, the Guide for the Care and Use of Laboratory Animals. and was approved by the IACUA Committee. Male Sprague-Dawley rats (0.262+/−0.019 kg) were used for the studies. Each drug was administered as a single dose by 30-min IV infusion (1 ml/kg) alone or in combination. Plasma samples were collected at 0 (pre-dose), 5, 10, 15 and 30 min, 1, 2, 4, 7, 12 and 24 h post-dose. Blood (approximately 0.1 mL) was processed immediately for plasma by centrifugation at 3,200 g at 4° C. for 10 min within half an hour of collection. Plasma samples were frozen and maintained at −70° C. until analyzed. To stabilize the prodrug at the sample collection and subsequent analysis, the following stabilizing reagents were added to the blood collection K2EDTA tubes on wet ice prior to sample collection: for each 100 mL of blood, 10 mL of premade inhibitor cocktail consists of 600 mM Citric Acid, 400 mM PMSF, 400 mM NaF, and 400 mM Dichlorvos.
# Determination of EFdA and Prodrugs in plasma: Briefly, plasma (20 μL) was mixed with 100 l acetonitrile to precipitate protein. Consistent with sample collection procedure, the same cocktail protocol was also added to stabilize the prodrug in the standard and QC samples.
# Bioanalysis: A Sciex API-6500 Plus triplequadrupole mass spectrometer coupled with a Waters Acquity UPLC system (Framingham, MA 01701) was used for quantitative analysis of plasma samples. The column was a Waters HSS T3 column (2.1×50 mm, 1.8 micrometer). The mobile phases used were: A, 0.1% formic acid in water; B, 0.1% formic acid in acetonitrile. For the analysis of EFdA and prodrugs in plasma, the flow rate was 0.6 mL/min with a total run time of 2.0 min. […] Detection of the prodrug and EFdA were achieved using positive ion electrospray mass spectroscopic mode using unit resolution mode. Multiple reaction monitoring (MRM) modes were used to quantify both prodrug and EFdA, e.g. the MRM transition for EFdA was 294.0-154.2 Da, and the transition for prodrug 4-A was 449.3-164.9 Da. For the analysis of lenacapavir in plasma, the flow rate was 0.7 mL/min with a total run time of 1.5 min. The HPLC gradient was initiated at 95% A/5% B for 0.50 min, followed by linear gradient increase to […] over the next 0.2 min; the gradient was subsequently maintained at 100% of mobile B over the next 0.7 min before ramping down to 95% mobile phase A within the following 0.1 min. Detection of lenacapavir was achieved using positive ion electrospray mass spectroscopic mode using unit resolution mode. Multiple reaction monitoring (MRM) modes were used to quantify lenacapavir, e.g. the MRM transition for lenacapavir was 968.1-869.4 Da. Peak areas were integrated by the Sciex program Analyst®, version 1.6.3, operating on a Windows 7 computer where concentrations were determined by a weighted (1/x2) linear regression of peak area ratios (peak area of EFdA/peak area of corresponding IS) versus the nominal concentrations of the plasma calibration standards. Calculations were performed on unrounded numbers. Overall, Analyst® determined the precision and accuracy for the calibration standards and QC samples.
compound,measurement,setting,value
"CC(C)(C#Cc1ccc(-c2ccc(Cl)c3c(NS(C)(=O)=O)nn(CC(F)(F)F)c23)c([C@H](Cc2cc(F)cc(F)c2)NC(=O)Cn2nc(C(F)(F)F)c3c2C(F)(F)[C@@H]2C[C@H]32)n1)S(C)(=O)=O [Lenacapavir, reference compound]",Lenacapavir Concentrations in Rat Plasma When Dosed Alone,"Lenacapavir IV infusion 1.0 mg/kg alone, 0.0830 hrs, individual animals",485 ng/mL and 603 ng/mL and 667 ng/mL
same,Lenacapavir Concentrations in Rat Plasma When Dosed Alone,"Lenacapavir IV infusion 1.0 mg/kg alone, 0.167 hrs, individual animals",845 ng/mL and 682 ng/mL and 734 ng/mL
same,Lenacapavir Concentrations in Rat Plasma When Dosed Alone,"Lenacapavir IV infusion 1.0 mg/kg alone, 0.250 hrs, individual animals",810 ng/mL and 801 ng/mL and 894 ng/mL
same,Lenacapavir Concentrations in Rat Plasma When Dosed Alone,"Lenacapavir IV infusion 1.0 mg/kg alone, 0.500 hrs, individual animals",612 ng/mL and 580 ng/mL and 984 ng/mL
same,Lenacapavir Concentrations in Rat Plasma When Dosed Alone,"Lenacapavir IV infusion 1.0 mg/kg alone, 1.00 hrs, individual animals",166 ng/mL and 222 ng/mL and 240 ng/mL
same,Lenacapavir Concentrations in Rat Plasma When Dosed Alone,"Lenacapavir IV infusion 1.0 mg/kg alone, 2.00 hrs, individual animals",104 ng/mL and 149 ng/mL and 164 ng/mL
same,Lenacapavir Concentrations in Rat Plasma When Dosed Alone,"Lenacapavir IV infusion 1.0 mg/kg alone, 4.00 hrs, individual animals",102 ng/mL and 157 ng/mL and 195 ng/mL
same,Lenacapavir Concentrations in Rat Plasma When Dosed Alone,"Lenacapavir IV infusion 1.0 mg/kg alone, 7.00 hrs, individual animals",185 ng/mL and 84.6 ng/mL and 141 ng/mL and 142 ng/mL
same,Lenacapavir Concentrations in Rat Plasma When Dosed Alone,"Lenacapavir IV infusion 1.0 mg/kg alone, 12.0 hrs, individual animals",79.4 ng/mL and 106 ng/mL and 139 ng/mL
same,Lenacapavir Concentrations in Rat Plasma When Dosed Alone,"Lenacapavir IV infusion 1.0 mg/kg alone, 24.0 hrs, individual animals",123 ng/mL and 141 ng/mL and 139 ng/mL
same,Lenacapavir Concentrations in Rat Plasma When Dosed Alone,"Lenacapavir IV infusion 1.0 mg/kg alone, 72.0 hrs, individual animals",51.3 ng/mL and 59.7 ng/mL and 57.2 ng/mL and 110 ng/mL
same,Lenacapavir Concentrations in Rat Plasma When Dosed with Prodrug formula 4-A,"0.0830 hrs, individual animals",460 ng/mL and 391 ng/mL and 314 ng/mL
same,Lenacapavir Concentrations in Rat Plasma When Dosed with Prodrug formula 4-A,"0.167 hrs, individual animals",479 ng/mL and 589 ng/mL and 415 ng/mL
same,Lenacapavir Concentrations in Rat Plasma When Dosed with Prodrug formula 4-A,"0.250 hrs, individual animals",623 ng/mL and 664 ng/mL and 375 ng/mL
same,Lenacapavir Concentrations in Rat Plasma When Dosed with Prodrug formula 4-A,"0.500 hrs, individual animals",643 ng/mL and 714 ng/mL and 448 ng/mL
same,Lenacapavir Concentrations in Rat Plasma When Dosed with Prodrug formula 4-A,"1.00 hrs, individual animals",170 ng/mL (2×) and 107 ng/mL
same,Lenacapavir Concentrations in Rat Plasma When Dosed with Prodrug formula 4-A,"2.00 hrs, individual animals",135 ng/mL and 105 ng/mL and 94.7 ng/mL
same,Lenacapavir Concentrations in Rat Plasma When Dosed with Prodrug formula 4-A,"4.00 hrs, individual animals",93.1 ng/mL and 101 ng/mL and 80.9 ng/mL
same,Lenacapavir Concentrations in Rat Plasma When Dosed with Prodrug formula 4-A,"7.00 hrs, individual animals",140 ng/mL and 101 ng/mL and 72.3 ng/mL and 58.8 ng/mL
same,Lenacapavir Concentrations in Rat Plasma When Dosed with Prodrug formula 4-A,"12.0 hrs, individual animals",139 ng/mL and 137 ng/mL and 158 ng/mL and 78.6 ng/mL
same,Lenacapavir Concentrations in Rat Plasma When Dosed with Prodrug formula 4-A,"24.0 hrs, individual animals",129 ng/mL and 164 ng/mL and 176 ng/mL and 62.5 ng/mL
same,Lenacapavir Concentrations in Rat Plasma When Dosed with Prodrug formula 4-A,"72.0 hrs, individual animals",40.1 ng/mL and 97.8 ng/mL and 97.2 ng/mL and 98.0 ng/mL
same,concentration at 48 h,"male, Sprague-Dawley, rat, in vivo, 1 mg/kg, Lenacapavir Concentrations in Rat Plasma When Dosed Alone",107 ng/mL
same,concentration at 0.083 h,"male, Sprague-Dawley, rat, in vivo, 1 mg/kg, Lenacapavir Concentrations in Rat Plasma When Dosed Alone, Lenacapavir IV infusion 1.0 mg/kg alone, 0.0830 hrs, Mean",612 ng/mL
same,concentration at 0.083 h,"male, Sprague-Dawley, rat, in vivo, 1 mg/kg, Lenacapavir Concentrations in Rat Plasma When Dosed Alone, Lenacapavir IV infusion 1.0 mg/kg alone, 0.0830 hrs, individual animals",692 ng/mL
same,concentration at 0.167 h,"male, Sprague-Dawley, rat, in vivo, 1 mg/kg, Lenacapavir Concentrations in Rat Plasma When Dosed Alone, Lenacapavir IV infusion 1.0 mg/kg alone, 0.167 hrs, Mean",739 ng/mL
same,concentration at 0.167 h,"male, Sprague-Dawley, rat, in vivo, 1 mg/kg, Lenacapavir Concentrations in Rat Plasma When Dosed Alone, Lenacapavir IV infusion 1.0 mg/kg alone, 0.167 hrs, individual animals",694 ng/mL
same,concentration at 0.25 h,"male, Sprague-Dawley, rat, in vivo, 1 mg/kg, Lenacapavir Concentrations in Rat Plasma When Dosed Alone, Lenacapavir IV infusion 1.0 mg/kg alone, 0.250 hrs, Mean",825 ng/mL

# From US12257264B2, “Combination therapy for HIV with adenosine derivative and capsid inhibitors” (Brii Biosciences, Inc., priority 2021, dated 2025)
